Assay results as given in publication PMC5147891 (PLoS ONE, 2016).
Where “and” joins values, the source holds several entries; their conditions need not be identical. Identical values can stand only once. Marks after values point to notes of the source that are not given here.

What was measured:
hCB2 receptors [1] = biological target: T1, hCB2 receptors (Homo sapiens, UniProt P34972); assay: Forskolin-stimulated intracellular [3H]cAMP in intact CHO-hCB2 cells; format: cell-based; conditions: values only approximate; for EMAX, intracellular [3H]cAMP: forskolin-stimulated cAMP; for EC50: increase of forskolin-stimulated cAMP
T1 construct: expressed in transfected cells
T1 sequence (P34972 whole entry): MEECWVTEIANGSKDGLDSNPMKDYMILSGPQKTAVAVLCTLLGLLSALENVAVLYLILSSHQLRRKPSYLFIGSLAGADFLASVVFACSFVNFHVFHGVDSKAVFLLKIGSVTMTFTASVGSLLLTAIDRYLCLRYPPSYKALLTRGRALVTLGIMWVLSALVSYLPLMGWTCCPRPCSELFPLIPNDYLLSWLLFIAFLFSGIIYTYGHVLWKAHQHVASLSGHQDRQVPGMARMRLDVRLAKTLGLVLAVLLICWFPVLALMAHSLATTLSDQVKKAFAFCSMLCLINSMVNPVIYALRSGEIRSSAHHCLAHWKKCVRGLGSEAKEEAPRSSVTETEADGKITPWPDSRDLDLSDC
Description: CHO-hCB1, CHO-hCB2, or CHO-hMOR cells were plated separately in normal culture media into 24-well plates at a density of 6 × 10^6 cells/plate and incubated overnight at 37°C in 5% CO2. As previously described, the following day culture media was removed from each well and replaced with 500 μl pre-incubation mixture containing either HAM’s F-12 K (CHO-hCB1) or DMEM (CHO-hCB2 and CHO-hMOR) with 0.9% NaCl, 500 μM 3-isobutyl-1-methylxathine (IBMX) and 2 μCi/well [^3H]adenine. Cells were incubated for 3–5 hr at 37°C. The pre-incubation mix was removed and indicated concentrations of drugs were added to the individual wells for 15 min at 37°C in a Krebs-Ringer-HEPES solution (10 mM HEPES, 110mM NaCl, 25mM Glucose, 55mM Sucrose, 5mM KCl, 1mM MgCl2, 1.8 mM CaCl2, pH 7.4) containing IBMX, and 10 μM forskolin. Reactions were terminated by adding 50 μl 2.2N HCl and [^3H]cAMP was isolated by employing alumina column chromatography. Radioactivity contained in 4 ml of the final column eluate was counted by a Packard-Tri-carb 2100/TR liquid scintillation counter after adding 10 ml of liquid scintillation cocktail.
To determine if modulation of adenylyl cyclase activity by SERMs was mediated through CB2 receptors coupling to Gi/o proteins, additional cAMP assays were conducted following overnight treatment with pertussis toxin as described elsewhere. Briefly, CHO-hCB2 cells were seeded into 24-well plates as described above in normal culture media containing 100 ng/ml of pertussis toxin and incubated overnight at 37°C. Pertussis toxin-treated media was removed and measurement of intracellular [^3H]cAMP levels following indicated SERM treatments was conducted as described above.
(§1) Data presented are expressed as mean ± standard error of the mean (S.E.M.) for a minimum of three experiments, each performed in triplicate. GraphPad Prism version 6.0f (GraphPad Software Inc.) was used for all curve-fitting and statistical analyses. Non-linear regression for one-site competition was used to determine the IC50 for competition receptor binding. IC50 values were subsequently converted to Ki values (a measure of receptor affinity) by the Cheng-Prusoff equation [31]. Non-linear regression was also used to analyze concentration-effect curves to determine the EC50 or IC50 (measures of potency) and Emax or Imax (measures of efficacy) for GTPγS binding and adenylyl cyclase experiments, respectively. All dissociation constants and measurements of potency were converted to pKi, pKB, pEC50, or pIC50 values by taking the negative log of each value so that parametric tests could be used for statistical comparisons. To compare three or more groups, statistical significance of the data was determined by a one-way ANOVA, followed by post hoc comparisons using a Tukey's or Dunnett's test. To compare two groups, the non-paired Student's t-test was used.

hCB2 receptors [2] = biological target: T1, hCB2 receptors; assay: Competition receptor binding with [3H]CP-55,940, CHO-hCB2 membranes; conditions: [3H]CP-55,940 binding, CHO-hCB2, 0.2 nM [3H]CP-55,940, CHO-hCB2 membranes
Description: (§2) CHO-hCB1, CHO-hCB2 and CHO-hMOR cells were homogenized individually with 10 complete strokes utilizing a 7ml Dounce glass homogenizer in an ice-cold buffer containing 50 mM HEPES pH 7.4, 3 mM MgCl2, and 1 mM EDTA as described previously. The homogenized samples were then centrifuged at 40,000 × g for 10 min at 4°C. Supernatants were discarded; the pellets re-suspended in the buffer, homogenized again, and centrifuged similarly twice more. After the final centrifugation step, supernatants were discarded and pellets were re-suspended in ice-cold 50 mM HEPES, pH 7.4 to achieve an approximate protein concentration of 10 mg/ml. Membrane homogenates were divided into aliquots and stored at −80°C for future use. A small aliquot of each membrane preparation was removed prior to freezing and the protein concentration was determined using BCA Protein Assay (Thermo Fisher Scientific, Waltham, MA).
(§3) Competition receptor binding was performed as reported earlier. […] The total volume of the incubation mixture was 1 ml. All reactions were mixed and allowed to reach equilibrium binding by incubation at room temperature for 90 min. […] Binding was terminated by rapid vacuum filtration through glass fiber filters (Brandel, Gaithersburg, MD), followed by four 5 ml washes of ice-cold 50 mM Tris-HCl (pH 7.4) buffer containing 0.1% bovine serum albumin. Four ml of scintiverse scintillation fluid (Fisher Scientific, Waltham, MA) was added to the filters and the amount of radioactivity was quantified 24 hr later utilizing liquid scintillation spectrophotometry.
as §1

hCB1 receptors [3] = biological target: T2, hCB1 receptors (Homo sapiens, UniProt P21554); assay: Competition receptor binding with [3H]CP-55,940, CHO-hCB1 membranes; conditions: for Ki: [3H]CP-55,940 binding, CHO-hCB1, 0.2 nM [3H]CP-55,940, CHO-hCB1 membranes; for Selectivity (CB1/CB2): ratio hCB1-Ki/hCB2-Ki
T2 sequence (P21554 whole entry): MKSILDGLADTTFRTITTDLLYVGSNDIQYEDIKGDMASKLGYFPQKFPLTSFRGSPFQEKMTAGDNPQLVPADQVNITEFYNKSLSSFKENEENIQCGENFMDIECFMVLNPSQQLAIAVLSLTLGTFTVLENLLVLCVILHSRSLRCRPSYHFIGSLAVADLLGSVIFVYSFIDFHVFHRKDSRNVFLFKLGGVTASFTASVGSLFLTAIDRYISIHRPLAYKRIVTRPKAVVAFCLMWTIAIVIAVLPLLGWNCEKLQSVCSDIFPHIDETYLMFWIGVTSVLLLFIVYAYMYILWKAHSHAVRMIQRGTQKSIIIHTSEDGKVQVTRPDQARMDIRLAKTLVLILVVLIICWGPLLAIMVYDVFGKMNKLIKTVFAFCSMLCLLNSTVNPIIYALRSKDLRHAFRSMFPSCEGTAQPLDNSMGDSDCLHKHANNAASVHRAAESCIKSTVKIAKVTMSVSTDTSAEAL
Description: as §2, §3, §1

ERs = conditions: ref [23], [24]; cited from earlier work
hCB2 receptors [4] = biological target: T1, hCB2 receptors; assay: [35S]GTPγS binding (G-protein activity), CHO-hCB2 membranes; format: biochemical; conditions: 10 μM
Description: as §2
The GTPγS binding assay to measure G-protein activation was performed as previously described. Briefly, in a total volume of 1 ml, 25 μg of CHO-hCB2, 50 μg of CHO-hCB1-Rx or 50 μg of CHO-hMOR membranes homogenates were added to each reaction mixture containing 0.1 nM [^35S]GTPγS, 20 mM HEPES, 10 mM MgCl2, 100 mM NaCl, 10 μM GDP, 0.1% bovine serum albumin and the indicated concentrations of ligand to be examined. After mixing, reaction mixtures were incubated at 30°C for 30 min. […] Nonspecific binding was defined by the amount of radioactivity remaining in the presence of 10 μM non-radiolabeled GTPγS. […] Four ml of scintiverse scintillation fluid (Fisher Scientific, Waltham, MA) was added to the filters and the amount of radioactivity was quantified 24 hr later utilizing liquid scintillation spectrophotometry.
Data presented are expressed as mean ± standard error of the mean (S.E.M.) for a minimum of three experiments, each performed in triplicate. […] To compare three or more groups, statistical significance of the data was determined by a one-way ANOVA, followed by post hoc comparisons using a Tukey's or Dunnett's test. […]

hCB1 receptors [5] = biological target: T2, hCB1 receptors; assay: Antagonism of CP-55,940 inhibition of AC activity in intact CHO-hCB1 cells; format: cell-based; conditions: for Type of antagonism of CP-55,940 / IMAX of CP-55,940, intracellular [3H]cAMP: CHO-hCB1 cells; for Kb: read-out: Kb (antagonist dissociation constant); for IMAX of CP-55,940, intracellular [3H]cAMP: CP-55,940 alone or after pre-incubation with AM-281 1 μM, Z-Tam 30 μM, Z-4OHT 10 μM, Z-End 30 μM
Description: (§4) After overnight seeding into 24-well plates and pre-incubation of cells with [^3H]adenine for 3–5 hr at 37°C as described above, media was removed and the indicated concentration of the SERM to be tested was added to all wells of the 24-well plate. […] Reactions were terminated and [^3H]cAMP isolated as described above.
as §1

hCB2 receptors [6] = biological target: T1, hCB2 receptors; assay: Antagonism of CP-55,940 inhibition of AC activity in intact CHO-hCB2 cells; format: cell-based
Description: as §4, §1

[7] = biological target: T3, human mu-opioid receptors (hMOR) (Homo sapiens, UniProt P35372); assay: [35S]GTPγS binding (G-protein activity), CHO-hMOR membranes; format: biochemical; conditions: 10 μM
T3 construct: expressed in transfected cells
T3 sequence (P35372 whole entry): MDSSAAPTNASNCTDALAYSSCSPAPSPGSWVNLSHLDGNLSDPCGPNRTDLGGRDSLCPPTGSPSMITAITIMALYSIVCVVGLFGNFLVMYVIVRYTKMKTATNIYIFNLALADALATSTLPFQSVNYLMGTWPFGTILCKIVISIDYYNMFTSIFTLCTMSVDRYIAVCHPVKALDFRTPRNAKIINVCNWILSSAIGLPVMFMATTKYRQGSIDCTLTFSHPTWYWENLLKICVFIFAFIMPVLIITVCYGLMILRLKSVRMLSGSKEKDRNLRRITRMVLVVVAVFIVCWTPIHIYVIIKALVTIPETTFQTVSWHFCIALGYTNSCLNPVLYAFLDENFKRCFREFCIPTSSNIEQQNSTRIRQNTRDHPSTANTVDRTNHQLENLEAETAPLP
Description: as §2, with “Membrane homogenates were divided into aliquots and stored at −80°C for future use.” left out
The GTPγS binding assay to measure G-protein activation was performed as previously described. […] Nonspecific binding was defined by the amount of radioactivity remaining in the presence of 10 μM non-radiolabeled GTPγS. […] Four ml of scintiverse scintillation fluid (Fisher Scientific, Waltham, MA) was added to the filters and the amount of radioactivity was quantified 24 hr later utilizing liquid scintillation spectrophotometry.
Data presented are expressed as mean ± standard error of the mean (S.E.M.) for a minimum of three experiments, each performed in triplicate. […]

hCB1 receptors [8] = biological target: T2, hCB1 receptors; assay: [35S]GTPγS binding (G-protein activity), CHO-hCB1 membranes; format: biochemical; conditions: read-out: IMAX, inhibition of basal [35S]GTPγS binding
Description: as §2
The GTPγS binding assay to measure G-protein activation was performed as previously described. Briefly, in a total volume of 1 ml, 25 μg of CHO-hCB2, 50 μg of CHO-hCB1-Rx or 50 μg of CHO-hMOR membranes homogenates were added to each reaction mixture containing 0.1 nM [^35S]GTPγS, 20 mM HEPES, 10 mM MgCl2, 100 mM NaCl, 10 μM GDP, 0.1% bovine serum albumin and the indicated concentrations of ligand to be examined. After mixing, reaction mixtures were incubated at 30°C for 30 min. […] Nonspecific binding was defined by the amount of radioactivity remaining in the presence of 10 μM non-radiolabeled GTPγS. Reactions were terminated by rapid vacuum filtration through glass fiber filters followed by four washes with ice cold 50 mM HEPES (pH 7.4) containing 0.1% bovine serum albumin. Four ml of scintiverse scintillation fluid (Fisher Scientific, Waltham, MA) was added to the filters and the amount of radioactivity was quantified 24 hr later utilizing liquid scintillation spectrophotometry.
as §1, with “All dissociation constants and measurements of potency were converted to pKi, pKB, pEC50, or pIC50 values by taking the negative log of each value so that parametric tests could be used for statistical comparisons.” left out, “To compare two groups, the non-paired Student's t-test was used.” left out

## CC/C(=C(/c1ccc(O)cc1)c1ccc(OCCNC)cc1)c1ccccc1 [E-End, 4-hydroxy-N-desmethyl tamoxifen]
hCB2 receptors [1]
  EMAX, intracellular [3H]cAMP: 239 ± 22^b %
  EC50: 10.7 µM
hCB2 receptors [2]
  Ki: 2.35 µM
hCB1 receptors [3]
  Ki: 1.39 µM
  Selectivity (CB1/CB2): 0.59

## CC/C(=C(\c1ccccc1)c1ccc(OCCN(C)C)cc1)c1ccccc1 [E-Tam, tamoxifen]
hCB2 receptors [1]
  EMAX, intracellular [3H]cAMP: 464 ± 48^a^, ^†† %
ERs
  Functional activity at ERs: ER agonist
hCB2 receptors [4]
  IMAX, decrease in basal G-protein activity ([35S]GTPγS binding): 49.7 ± 1.5%

## CC/C(=C(\c1ccc(O)cc1)c1ccc(OCCN(C)C)cc1)c1ccccc1 [Z-4OHT, 4-hydroxytamoxifen]
hCB1 receptors [5]
  Type of antagonism of CP-55,940: surmountable antagonism
  Kb: 4.68 µM
hCB2 receptors [1]
  EMAX, intracellular [3H]cAMP: 323 ± 37^a^,^b %
  EC50: 4.9 µM
hCB2 receptors [2]
  Ki: 0.495 µM
hCB2 receptors [6]
  Type of antagonism of CP-55,940: surmountable antagonism
hCB2 receptors [6]; against CP-55,940, AM-630 1 μM, Z-Tam 10 μM, Z-4OHT 10 μM, read-out: Kb (antagonist dissociation constant)
  Kb: 0.856 µM and 0.851 µM
hCB1 receptors [3]
  Ki: 0.681 µM
  Selectivity (CB1/CB2): 1.38

## CC/C(=C(\c1ccc(O)cc1)c1ccc(OCCNC)cc1)c1ccccc1 [Z-End, 4-hydroxy-N-desmethyl tamoxifen]
hCB1 receptors [5]
  Type of antagonism of CP-55,940: surmountable antagonism
  Kb: 2.57 µM
hCB2 receptors [1]
  EMAX, intracellular [3H]cAMP: 259 ± 18^b %
  EC50: 11.5 µM
hCB2 receptors [2]
  Ki: 2.39 µM
hCB2 receptors [6]
  Type of antagonism of CP-55,940: insurmountable
hCB2 receptors [6]; Z-End 30 μM
  Shift-to-the-right in potency (IC50) of CP-55,940: > 8 fold
hCB1 receptors [3]
  Ki: 1.16 µM
  Selectivity (CB1/CB2): 0.49^††

## CC/C(=C(\c1ccccc1)c1ccc(OCCN(C)C)cc1)c1ccccc1 [Z-Tam, tamoxifen]
hCB1 receptors [5]
  Type of antagonism of CP-55,940: insurmountable
  IMAX of CP-55,940, intracellular [3H]cAMP: 23.0%
hCB1 receptors [5]; listed as +Z-Tam
  IMAX of CP-55,940, intracellular [3H]cAMP: 23.0 ± 0.5^b %
[7]
  Decrease in [35S]GTPγS binding: 11.3%
hCB2 receptors [1]
  EMAX, intracellular [3H]cAMP: 374 ± 24^a^,^b^, ^††† %
ERs
  Functional activity at ERs: ER antagonist
hCB1 receptors [8]
  inhibition at 10 µM: 50.8 ± 2.7%
hCB2 receptors [6]
  Type of antagonism of CP-55,940: surmountable antagonism
hCB2 receptors [6]; CP-55,940 alone or after pre-incubation with AM-630 1 μM, Z-Tam 10 μM, Z-4OHT 10 μM, Z-End 30 μM
  IMAX of CP-55,940, intracellular [3H]cAMP: 32.3 ± 0.7^a %
hCB2 receptors [4]
  IMAX, decrease in basal G-protein activity ([35S]GTPγS binding): 65.1± 3.0%
